Assay results published in patent US8778871B2 (Takeda Pharmaceutical Company Limited, priority 2004, dated 2014).
Non-standard residues stand in square brackets, D forms with d. No end group written: not given here. *: point of attachment. Phe(4-F) = N[C@@H](Cc1ccc(F)cc1)C(=O)O; Arg(Me) = CNC(=N)NCCC[C@H](N)C(=O)O; 2Thi = N[C@@H](Cc1cccs1)C(=O)O; Nva = CCC[C@H](N)C(=O)O; Hexanoyl = CCCCCC(=O)*; Butyryl = CCCC(=O)*; Bz = O=C(c1ccccc1)*; azaGly = NNC(=O)O; βAla = NCCC(=O)O; For = O=C*

Legend:
hOT7T175 [1] = target: T1, hOT7T175 (Homo sapiens, UniProt Q969F8, L364H); type: cell-based; settings: hOT7T175/CHO, FLIPR, evaluation for 40 seconds after initiation of the reaction
T1 construct: expressed in transfected cells
T1 sequence (Q969F8 whole entry L364H): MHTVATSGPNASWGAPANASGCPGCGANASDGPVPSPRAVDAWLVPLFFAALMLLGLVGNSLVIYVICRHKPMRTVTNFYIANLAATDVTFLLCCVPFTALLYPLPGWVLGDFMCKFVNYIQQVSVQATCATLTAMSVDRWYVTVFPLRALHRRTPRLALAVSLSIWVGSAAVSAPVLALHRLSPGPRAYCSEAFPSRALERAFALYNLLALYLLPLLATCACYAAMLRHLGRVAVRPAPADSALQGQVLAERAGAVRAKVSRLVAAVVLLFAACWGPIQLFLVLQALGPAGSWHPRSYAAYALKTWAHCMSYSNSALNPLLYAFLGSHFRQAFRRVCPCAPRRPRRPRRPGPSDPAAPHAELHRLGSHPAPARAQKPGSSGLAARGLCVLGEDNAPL
Protocol: The intracellular Ca ion level-increasing activity was measured using FLIPR as in TEST EXAMPLE 2.

[2] = Blood testosterone level decreasing effect in mature male rat (0.1 mM peptide solution); type: in vivo
Protocol: This peptide solution was filled in 5 ALZET osmotic pumps (Model 2001, 0.2 ml in volume, release rate: 0.001 ml/hr, DURECT Corporation). The ALZET pumps filled with the peptide solution were implanted subcutaneously in 5 CD(SD)IGS male rats of 9 weeks old after birth (Charles River Japan, Inc.) on the back under ether anesthesia by one pump for one animal. For negative control, distilled water (Otsuka Pharmaceutical Co., Ltd.) was filled in 5 ALZET osmotic pumps, which were similarly implanted in 5 male CD(SD)IGS rats (Charles River Japan, Inc.), respectively. These pump-implanted rats were fed for 6 days under normal feeding conditions. After weighing, the animal was decapitated to collect blood. After 0.03 ml/ml blood of aprotinin solution (Trasylol, Bayer) containing 0.1 mg/ml EDTA.2Na was added to blood, the mixture was centrifuged at 1,800 G for 25 minutes to isolate/recover plasma. From the plasma obtained, 0.05 ml was applied to radioimmunoassay (DPC.Total Testosterone Kit, Diagnostic Products Corporation) to measure the plasma testosterone level of each rat. The value below the limit of measurement (0.04 ng/ml of plasma level) in radioimmunoassay was treated as 0. A mean value of the testosterone levels from 5 rats receiving the peptide was calculated and a relative value (percent) of the mean value to a mean value from 5 rats receiving distilled water.
In a manner similar to TEST EXAMPLE 14, evaluation was made using 0.1 mM peptide solution and a part of the results obtained are shown in TABLE 30.

hOT7T175 [3] = target: T2, hOT7T175 (Homo sapiens, UniProt Q969F8); assay: Intracellular Ca ion level-increasing activity using FLIPR (180 seconds; specific activity to Metastin (1-54)); type: cell-based; settings: hOT7T175/CHO, change in intracellular calcium ion level for 180 seconds, Tables 21-23
T2 construct: expressed in transfected cells
T2 sequence (Q969F8 whole entry L364H): as above

[4] = Action of reducing testosterone level in blood in mature male rat (1 mM peptide in 50% DMSO, ALZET osmotic pump); type: in vivo; settings: 1 mM peptide in 50% DMSO aqueous solution, ALZET osmotic pump s.c., six days
Protocol: The peptide was encapsulated in five ALZET osmotic pump (Model 2001, 0.2 ml of volume, releasing rate 0.001 ml/hr, DURECT Corporation). The ALZET pumps encapsulated with the peptide solution were implanted to dorsal subcutaneous of five male CD (SD) IGS rat at nine weeks age (Charles River Japan, Inc.) anesthesized with ether for one pump to one rat. Separately, for negative controls, the ALZET osmotic pumps encapsulated with distilled water were implanted to five male CD (SD) IGS rat (Charles River Japan, Inc.) The rats were bred for six days under the normal conditions. After weighing, blood was collected by decapitation. To 1 ml of blood, 0.03 ml of aprotinin (Trasylol, Byer) solution containing 0.1 g/ml EDTA 2Na was added. The plasma was isolated by centrifugation at 1,800×g for 25 minutes and collected. The thus obtained plasma, 0.05 ml was effected by radioimmunoassay. (DPC Total Testosterone Kit, Diagnostic Products Corporation) to measure testosterone level in blood of each rat. The value beneath measuring limit of radioimmunoassay (0.04 ng/ml as concentration of plasma) was treated as zero. The mean values for testosterone level of five rats, to which the peptide was given, was calculated and the relative value (percentage) for the mean values of testosterone level of five rats, to which distilled watrer was given, was estimated.

Row | Substance | Specific Act. (EC50/MS10 EC50) (hOT7T175 [1]) | Teststerone level in Blood [2] [%] | intracellular Ca ion level-increasing activity [specific activity to Metastin (1-54)] (hOT7T175 [3]) | Testosterone level in Blood [4] [%]
1 | [dR][βAla][dY][dW]NTF[azaGly]L[Arg(Me)]W-NH2 [Compound No. 554] | 1.3 | 52 |  | 
2 | D-Nle-Acp-D-Tyr-D-Trp-Asn-Thr-Phe-AzaGly-Leu-Arg(Me)-Trp-NH2 [Compound No. 553] | 1.9 | 39 |  | 
3 | D-Tyr-D-Pya(4)-Asn-Ser(Ac)-Phe-AzaGly-Leu-Arg(Me)-Trp-NH2 [Compound No. 547] | 2.5 | 65 |  | 
4 | Butyryl-[dY][dW]NTF[azaGly]L[Arg(Me)]W-NH2 [Compound No. 567] | 0.8 | 86 |  | 
5 | Bz-NT[Phe(4-F)][azaGly]L[Arg(Me)]W-NH2 [Compound No. 523] | 1.1 | 72 |  | 
6 | Ac-D-Tyr-D-Pya(4)-Asn-Ser-Phe-AzaGly-Leu-Arg(Me)-Phe-NH2 [Compound No. 516] | 3.7 | 3 |  | 
7 | Ac-[dY][dW]NSF[azaGly]L[Arg(Me)]W-NH2 [Compound No. 558] | 0.4 | 2 |  | 
8 | Bz-[dY][dW]NTF[azaGly]L[Arg(Me)]W-NH2 [Compound No. 565] | 0.6 | 80 |  | 
9 | Ac-D-Tyr-D-Pya(4)-Asn-Thr-Phe-AzaGly-Leu-Arg(Me)-Trp-NH2 [Compound No. 562] | 1.0 | 11 |  | 
10 | Arg-Acp-D-Tyr-D-Pya(4)-Asn-Ser-Phe-AzaGly-Leu-Arg(Me)-Trp-NH2 [Compound No. 538] | 3.3 | 45 |  | 
11 | Ac-[dY][dW]NTF[azaGly]L[Arg(Me)]F-NH2 [Compound No. 571] | 1.2 | 17 |  | 
12 | D-Dap-Acp-D-Tyr-D-Trp-Asn-Thr-Phe-AzaGly-Leu-Arg(Me)-Trp-NH2 [Compound No. 552] | 2.3 | 21 |  | 
13 | [dY][dW]NSF[azaGly]L[Arg(Me)]W-NH2 [Compound No. 540] | 0.7 | 55 |  | 
14 | Cyclopropanecarbonyl-D-Tyr-D-Trp-Asn-Thr-Phe-AzaGly-Leu-Arg(Me)-Trp-NH2 [Compound No. 566] | 0.8 | 89 |  | 
15 | Ac-[dY][dW]NTF[azaGly]L[Arg(Me)]W-NH2 [Compound No. 550] | 0.7 | 2 |  | 
16 | D-Tyr-D-Pya(4)-Asn-Thr-Phe-AzaGly-Leu-Arg(Me)-Trp-NH2 [Compound No. 501] | 1.1 |  | 10 | 2
17 | Hexanoyl-D-Trp-Asn-Thr-Phe-AzaGly-Leu-Arg(Me)-Trp-NH2 (Hexanoyl-[dW]NTF[azaGly]L[Arg(Me)]W-NH2; SMILES CCCCCC(=O)N[C@H](Cc1c[nH]c2ccccc12)C(=O)N[C@@H](CC(N)=O)C(=O)N[C@H](C(=O)N[C@@H](Cc1ccccc1)C(=O)NNC(=O)N[C@@H](CC(C)C)C(=O)N[C@@H](CCCNC(=N)NC)C(=O)N[C@@H](Cc1c[nH]c2ccccc12)C(N)=O)[C@@H](C)O) [Compound No. 667] | 1.4 |  |  | 2
18 | For-[dY][dW]NTF[azaGly]L[Arg(Me)]W-NH2 [Compound No. 612] | 0.8 |  |  | 2
19 | 3-(4-Hydroxyphenyl)propionyl-D-Trp-Asn-Thr-Phe-AzaGly-Leu-Arg(Me)-Trp-NH2 [Compound No. 559] | 0.3 | 17 |  | 
20 | G[dY][dW]NTF[azaGly]L[Arg(Me)]W-NH2 [Compound No. 648] | 1.6 |  |  | 2
21 | Ac-D-Tyr-Pro-Asn-Thr-Phe-AzaGly-Leu-Arg(Me)-Trp-NH2 (Ac-[dY]PNTF[azaGly]L[Arg(Me)]W-NH2; SMILES CNC(=N)NCCC[C@H](NC(=O)[C@H](CC(C)C)NC(=O)NNC(=O)[C@H](Cc1ccccc1)NC(=O)[C@@H](NC(=O)[C@H](CC(N)=O)NC(=O)[C@@H]1CCCN1C(=O)[C@@H](Cc1ccc(O)cc1)NC(C)=O)[C@@H](C)O)C(=O)N[C@@H](Cc1c[nH]c2ccccc12)C(N)=O) [Compound No. 657] | 1.1 |  |  | 2
22 | Ac-D-Arg-Acp-D-Tyr-D-Trp-Asn-Thr-Phe-AzaGly-Leu-Arg(Me)-Trp-NH2 [Compound No. 551] | 1.2 | 8 |  | 
23 | Ac-D-Tyr-D-Trp-Asn-Thr-Phe-AzaGly-Nva-Arg(Me)-Trp-NH2 (Ac-[dY][dW]NTF[azaGly][Nva][Arg(Me)]W-NH2; SMILES CCC[C@H](NC(=O)NNC(=O)[C@H](Cc1ccccc1)NC(=O)[C@@H](NC(=O)[C@H](CC(N)=O)NC(=O)[C@@H](Cc1c[nH]c2ccccc12)NC(=O)[C@@H](Cc1ccc(O)cc1)NC(C)=O)[C@@H](C)O)C(=O)N[C@@H](CCCNC(=N)NC)C(=O)N[C@@H](Cc1c[nH]c2ccccc12)C(N)=O) [Compound No. 677] | 0.3 |  |  | 2
24 | 3-Pyridinepropionyl-D-Trp-Asn-Thr-Phe-AzaGly-Leu-Arg(Me)-Trp-NH2 ({3‑Pyridinepropionyl}-[dW]NTF[azaGly]L[Arg(Me)]W-NH2) [Compound No. 670] | 0.9 |  |  | 2
25 | Ac-[dY]WNTF[azaGly]L[Arg(Me)]W-NH2 [Compound No. 623] | 0.6 |  |  | 2
26 | Ac-[dY][dW]NTF[azaGly]L[Arg(Me)][2Thi]-NH2 [Compound No. 590] | 1.4 |  |  | 2
27 | Tyr-D-Tyr-D-Trp-Asn-Thr-Phe-AzaGly-Leu-Arg(Me)-Trp-NH2 (Y[dY][dW]NTF[azaGly]L[Arg(Me)]W-NH2; N-terminus assumed; SMILES CNC(=N)NCCC[C@H](NC(=O)[C@H](CC(C)C)NC(=O)NNC(=O)[C@H](Cc1ccccc1)NC(=O)[C@@H](NC(=O)[C@H](CC(N)=O)NC(=O)[C@@H](Cc1c[nH]c2ccccc12)NC(=O)[C@@H](Cc1ccc(O)cc1)NC(=O)[C@@H](N)Cc1ccc(O)cc1)[C@@H](C)O)C(=O)N[C@@H](Cc1c[nH]c2ccccc12)C(N)=O) [Compound No. 675] | 0.8 |  |  | 2
28 | Ac-Tyr-Trp-Asn-Thr-Phe-AzaGly-Leu-Arg(Me)-Trp-NH2 (Ac-YWNTF[azaGly]L[Arg(Me)]W-NH2; SMILES CNC(=N)NCCC[C@H](NC(=O)[C@H](CC(C)C)NC(=O)NNC(=O)[C@H](Cc1ccccc1)NC(=O)[C@@H](NC(=O)[C@H](CC(N)=O)NC(=O)[C@H](Cc1c[nH]c2ccccc12)NC(=O)[C@H](Cc1ccc(O)cc1)NC(C)=O)[C@@H](C)O)C(=O)N[C@@H](Cc1c[nH]c2ccccc12)C(N)=O) [Compound No. 664] | 0.6 |  |  | 6
